# Test results as given in US8987189B2, “Treating hepatitis C virus infection” (Board of Regents, The University of Texas System, priority 2007, dated 2015).
# Columns and labels:
# genotype 2a HCV = experiment: HCV release assay in Huh7-GL cells (HCV RNA copy number and titer in medium, intracellular HCV RNA); type: cell-based, hepatitis C virus; conditions: for cellular release of virus (HCV RNA copy numbers and titers in the media): Huh7-GL cells, 1 nM, 10 nM, 100 nM and 500 nM, 16 hr then 4 hours in serum-free medium
# Protocol: (§1) Huh7-GL cells were incubated in the absence or presence of the MTP inhibitor […]. Following incubation in serum-free medium, culture medium was harvested and the amount of HCV RNA, HCV titer, and apoB in the medium was measured.
# Huh7-GL cells are cultured as described in Example 2. On day 1, the cells are treated with 1 nM, 10 nM, 100 nM, and 500 nM of the following MTP inhibitors: BMS-201038 (positive control), BMS-200150, BMS-212122, BMS-197636, JTT-130, Implitapide, mitratapide, and CP-346086. 16 hr later on day 2, cells are switched to serum-free medium in the absence or presence of the same amount of the MTP inhibitor.
# apoB = apoB mRNA and apoB secretion in Huh7-GL cells; type: cell-based, human; conditions: Huh7-GL cells incubated with MTP inhibitor, serum-free medium
# Protocol: We transfected Huh7-GL cells, a line of Huh7 cells that contain a chromosomally integrated genotype 2a HCV cDNA and constitutively produce infectious virus (Cai et al., 2005), with a duplex siRNA targeting apoB or GFP as a control. Following incubation in serum-free medium, culture medium was harvested and the amount of apoB and HCV in the medium was analyzed. […] In control cells transfected with the GFP siRNA, the HCV copy number and titer increased by more than 10 fold during the period of 4-hr incubation. In cells receiving the apoB siRNA, this increase was reduced by about 50% as assayed by viral copy number, and 70% as assayed by the viral titer.
# as §1
# HCV = experiment: Randomized, double-blind, placebo-controlled trial in patients with chronic HCV infection; conditions: 0.15 mg per kilogram twice daily, 12-week course
# Protocol: Patients are recruited and are eligible for enrollment if they are positive for HCV RNA on serologic testing after at least 3 months of interferon therapy. Patients who can not tolerate interferon because of severe side effects, such as fatigue, neuropsychiatric disturbances, or thrombocytopenia, are also included.
# Physicians and patients are blinded to treatment assignments. Patients are evaluated every 3 weeks for compliance, which is assessed by pill count, and for the development of adverse reactions. […] At each evaluation visit, a complete blood count is done and serum levels of electrolytes, blood urea nitrogen, creatinine, aspartate aminotransferase, alanine aminotransferase, albumin, and total bilirubin are measured. Titers of serum HCV RNA are assessed before enrollment, at each evaluation visit, and 6 weeks after the final dose by using a […] multicycle reverse transcription polymerase chain reaction method. Titers are calculated up to 5 million copies/mL; if a titer is greater than 5 million copies/mL, it is simply reported as such and the exact value is not given.
# [1] = previous clinical trials; cited from earlier work
# [2] = Huh7-GL cells incubated with MTP inhibitor vs absence of inhibitor
Molecule,cellular release of virus (HCV RNA copy numbers and titers in the media) (genotype 2a HCV),other results
CCCNC(=O)C1(CCCCN2CCC(N3Cc4ccccc4C3=O)CC2)c2ccccc2-c2ccccc21 [BMS-197636],decreases in cellular release of virus,
O=C1c2ccccc2CN1C1CCN(CCC(c2ccccc2)c2ccccc2)CC1 [BMS-200150],decreases in cellular release of virus,
O=C(NC1CCN(CCCCC2(C(=O)NCC(F)(F)F)c3ccccc3-c3ccccc32)CC1)c1ccccc1-c1ccc(C(F)(F)F)cc1 [BMS-201038],decreases in cellular release of virus,"secretion of apoB (apoB): blocked; intracellular HCV RNA (genotype 2a HCV; Huh7-GL cells in the absence or presence of the MTP inhibitor): remained the same; reduction of the amount of HCV RNA in the medium (genotype 2a HCV; [2]): about 80%; reduction of viral titer in the medium (genotype 2a HCV; [2]): about 80%; serum viremia (viral load, aminotransferase levels) (HCV): decrease in serum viremia; tolerability [1]: high tolerability"
Cc1ccc2c(nc(C)n2CCCCC2(C(=O)NCC(F)(F)F)c3ccccc3-c3ccccc32)c1NC(=O)c1ccccc1-c1ccc(C(F)(F)F)cc1 [BMS-212122],decreases in cellular release of virus,
O=C(Nc1ccc2c(c1)CCN(Cc1ncn[nH]1)C2)c1ccccc1-c1ccc(C(F)(F)F)cc1 [CP-346086],decreases in cellular release of virus,
CCOC(=O)C(COC(=O)Cc1ccc(NC(=O)c2ccccc2-c2ccc(C(F)(F)F)cc2)c(C(=O)N(C)C)c1)(C(=O)OCC)c1ccccc1 [JTT-130],decreases in cellular release of virus,
CC[C@@H](C)n1ncn(-c2ccc(N3CCN(c4ccc(OC[C@@H]5CO[C@@](CSc6nncn6C)(c6ccc(Cl)cc6)O5)cc4)CC3)cc2)c1=O [mitratapide],decreases in cellular release of virus,
implitapide,decreases in cellular release of virus,
